{"source": "patent US20050153948A1", "about": "“Methods and formulations for the treatment of medical conditions related to elevated dihydrotestosterone” (Zomanex, LLC, priority 2003, published 2005)", "origin": "cited, not measured here", "key": {"[1]": {"settings": "aqueous sterol/lecithin formulation, deuterated compounds, humans"}, "Type I human reductase": {"target": "T1, Type I human reductase (Homo sapiens, UniProt P18405)", "T1 sequence (P18405 1-259)": "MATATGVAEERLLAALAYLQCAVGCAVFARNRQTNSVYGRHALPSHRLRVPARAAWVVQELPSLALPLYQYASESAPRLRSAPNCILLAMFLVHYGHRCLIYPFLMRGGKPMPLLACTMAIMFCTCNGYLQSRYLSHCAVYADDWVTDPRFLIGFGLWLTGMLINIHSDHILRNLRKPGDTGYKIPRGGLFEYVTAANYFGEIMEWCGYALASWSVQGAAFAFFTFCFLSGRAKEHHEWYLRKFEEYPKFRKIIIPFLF", "settings": "Type I human 5α-reductase; read-out: K1 for Type I human reductase"}, "[2]": {"tested_on": "prostate (benign prostatic hyperplasia)", "settings": "long-term use; reduced from about 10 percent"}, "[3]": {"target": "T2, type II enzyme (5α-reductase) (Homo sapiens, UniProt P31213)", "T2 sequence (P31213 1-254)": "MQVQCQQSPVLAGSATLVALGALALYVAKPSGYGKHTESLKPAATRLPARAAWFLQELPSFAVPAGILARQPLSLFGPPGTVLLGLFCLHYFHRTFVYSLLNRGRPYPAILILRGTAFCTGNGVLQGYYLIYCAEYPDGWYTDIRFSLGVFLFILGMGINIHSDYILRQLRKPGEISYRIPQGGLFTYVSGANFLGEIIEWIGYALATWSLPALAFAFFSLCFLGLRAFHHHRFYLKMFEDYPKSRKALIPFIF", "settings": "type II 5α-reductase; read-out: K1 for type II enzyme"}, "prostate cancer": {"tested_on": "prostate cancer", "settings": "5 mg per day, seven-year trial; placebo group 24.4 percent"}, "circulating serum DHT": {"tested_on": "circulating serum DHT", "settings": "two clinical trials"}}}
{"smiles": "CC(C)[C@H](C)CC[C@@H](C)[C@H]1CC[C@H]2[C@@H]3CC=C4C[C@@H](O)CC[C@]4(C)[C@H]3CC[C@]12C", "note": "[campesterol]", "values": [{"measurement": "absorption relative to reduced derivatives sitostanol and campestanol", "setting": "[1]", "result": "about ten"}]}
{"smiles": "CC(C)(C)NC(=O)[C@H]1CC[C@H]2[C@@H]3CC[C@H]4NC(=O)C=C[C@]4(C)[C@H]3CC[C@]12C", "note": "[finasteride]", "values": [{"measurement": "Ki", "setting": "Type I human reductase", "result": 0.325, "unit": "µM"}, {"measurement": "need for surgical intervention for BPH", "setting": "[2]", "result": 5, "unit": "%"}, {"measurement": "Ki", "setting": "[3]", "result": 0.012, "unit": "µM"}, {"measurement": "cumulative incidence of cancer", "setting": "prostate cancer", "result": 18.4, "unit": "%"}, {"measurement": "reduction in circulating serum DHT", "setting": "circulating serum DHT", "result": 65, "unit": "%"}]}
{"smiles": "CC[C@H](CC[C@@H](C)[C@H]1CC[C@H]2[C@@H]3CC=C4C[C@@H](O)CC[C@]4(C)[C@H]3CC[C@]12C)C(C)C", "note": "[sitosterol]", "values": [{"measurement": "absorption relative to reduced derivatives sitostanol and campestanol", "setting": "[1]", "result": "about ten"}]}
